Measurements from paper PMC3598812, “Evaluation of Anti-Hyperalgesic and Analgesic Effects of Two Benzodiazepines in Human Experimental Pain: A Randomized Placebo-Controlled Study” (PLoS ONE, 2013).
Entries after “also recorded” stand apart in the source; their conditions may differ. Like-named read-outs stand apart in the source and are kept apart here.

Tests used:
[1] = tested on: healthy male volunteers; experiment: Area of static hyperalgesia after intradermal capsaicin injection (512 mN von Frey hair); format: in vivo, human; settings: for Area of static hyperalgesia: single oral dose (clobazam 20 mg, clonazepam 1 mg, tolterodine 1 mg), mean (SD)
Excerpt: Intradermal injection of capsaicin causes a brief stinging/burning pain at the injection site followed by development of secondary hyperalgesia, i.e. hyperalgesia detected at surrounding (not injected) skin [15], [16]. Secondary hyperalgesia after intradermal capsaicin is the result of sensitization of the central nervous system, which is one of the most relevant aspects of neuroplastic changes. This model was sensitive to the action of GABAergic compounds in animal studies.
The capsaicin solution was prepared by the Hospital Pharmacy and underwent sterile filtration into sterile septum-sealed vials. The sterile solution (1 mg/ml) was placed into sterile syringes and used for intradermal injection at room temperature. The skin temperature was measured using a digital thermometer, and was 32°C+/−1 in all subjects.
Subjects remained semi-supine during the experiment. Before capsaicin injection, the skin of the forearm was cleaned using an antiseptic wipe and allowed to air dry. The injection site was marked midway between the elbow and the wrist. Using a surgical skin marker, 4 lines were drawn through the injection site, so that they intersected the corners of a regular octagon (figure 2). These lines were marked every 0.5 cm from the center to the edges using a predefined grid. […] We determined the area of hyperalgesia by adding the areas of each triangle in which hyperalgesia was recorded.
Using a 1-ml tuberculin syringe fitted with a 27-gauge disposable needle, 100 µl capsaicin were injected […] into the skin, at the intersection of the 4 vectors previously drawn. A white skin elevation appeared during injection ensuring correct injection.
Static mechanical hyperalgesia was judged to be present when the subjects reported that applying a 512 mN von Frey Hair, 5 and 30 minutes after capsaicin injection, elicited pain with an intensity of at least 4 using a numerical rating scale (NRS, whereby 0 = no pain and 10 = worst pain). Only these subjects were included in the study. In order to document pain induction, the subject recorded pain intensity at injection and 5 minutes post-injection using a 10 cm visual analogue pain scale (VAS), whereby 0 = no pain and 10 = worst pain imaginable.
The area of secondary hyperalgesia was assessed using a calibrated 512 mN von Frey hair. The punctuated probe was moved along the 8 radial lines defined above, starting approximately 6 cm away from the site of injection, at each mark in steps of 0.5 cm. The weighted von Frey hair was placed gently on the skin and the load was applied for 2 seconds. The volunteers were asked to report when the pricking sensation changed to a pain sensation. At least 4 seconds elapsed between consecutive stimuli. This procedure was repeated for each vector. The number corresponding to the marker at which sensation changes as described above was noted and the individual numbers were used to calculate the area of hyperalgesia.
The flow of the experiment is illustrated in figure 3. After training, basal values for the pain tests were determined. The study medication was given immediately after the intradermal injection of capsaicin. Thus, basal values were recorded for all tests, except for those related to capsaicin injection. Because of the relatively short duration of hyperalgesia induced by capsaicin, the recordings of basal values before drug administration would yield a too short testing procedure.

[2] = tested on: healthy male volunteers; experiment: Conditioned pain modulation (cold pressor test and pressure algometry); format: in vivo, human; settings: difference in pressure pain detection threshold after vs before cold pressor test, mean (SD)
Excerpt: This method explores the endogenous modulation of nociceptive input. Under normal conditions, pain after application of a “test” nociceptive stimulus is attenuated by the application of an additional conditioning noxious stimulus to a remote body region, reflecting diffuse endogenous inhibition, [20]. In the present study, pressure pain detection threshold and cold pressure test (see below) were used as test and conditioning stimuli, respectively. An increase in pressure pain detection threshold immediately after cold pressure test was an indication of CPM.
The subjects placed their hand into a container filled with ice water. In order to maximize heterotopic stimulation, the hand contralateral to the side of pressure stimulation was used. The water was regularly mixed to maintain the temperature near to 0°C. The temperature of the water near the hand was monitored by a thermometer with a digital display (±0.1°C). The subjects were asked to keep the hand in the water until they felt an intolerable sensation of pain and were forced to remove the hand from the container, with a maximum time of 2 min.
Pressure pain detection threshold was measured again at the same time as the subject was withdrawing the hand from the water (one single measurement). CPM was measured as the difference in pressure pain detection threshold between measurements after and before the cold pressure test.

[3] = tested on: healthy male volunteers; experiment: Cutaneous repeated (5 stimuli) electrical stimulation, temporal summation threshold; format: in vivo, human; settings: mean (SD)
Excerpt: (§1) The stimulus burst used for single stimulus was repeated 5 times at 2 Hz, at constant intensity. The current intensity of the 5 stimuli was increased from 1 mA in steps of 0.5 mA until the subjects felt pain during the last 2–3 of the 5 stimuli (indicating temporal summation).
Three assessments were made and the mean of these 3 measurements was used for the data analysis.

[4] = tested on: patients / volunteers; settings: cited from earlier work
[5] = tested on: healthy male volunteers; experiment: Intramuscular repeated (5 stimuli) electrical stimulation pain threshold; format: in vivo, human; settings: for Pain threshold after 5 intramuscular electrical stimuli: mean (SD)
Excerpt: as §1
(§2) A needle was placed in the tibialis anterior muscle, 14 cm distal from the caudal end of the patella and 20 mm in depth. The same single and repeated stimulation patterns and the same procedure described for cutaneous stimulation were used.

[6] = tested on: healthy male volunteers; experiment: Psychomotor performance, digit symbol substitution test (DSST); settings: for DSST-score: single oral dose (clobazam 20 mg, clonazepam 1 mg, tolterodine 1 mg), mean (SD)
Description: The psychomotor performance was assessed by the digit symbol substitution test (DSST), a subscale of the Wechsler Adult Intelligence Scale. The DSST evaluates the ability to concentrate and modifications in processing information [23]. It is a two-minute paper-and-pencil test. The subject was asked to replace digits with corresponding symbols according to a code given on the same sheet of paper. The score consists in the total number and the correct number of symbols drawn.
Pressure pain, conditioned pain modulation (CPM), intramuscular electrical pain tests, cuff algometry and DSST were performed 120 min after drug intake.
After 15 min, the whole battery of tests was performed.

[7] = trial protocol, cited from earlier work
[8] = tested on: healthy male volunteers; experiment: Intramuscular repeated (20 stimuli) electrical stimulation, VAS; format: in vivo, human; set-up: AUC of VAS during 20 intramuscular electrical stimuli: unit not given beside the values; settings: mean (SD); for Maximal VAS during 20 intramuscular electrical stimuli: VAS 0-10
Description: The stimulus burst used for single stimulus was repeated for a train of 20 pulses at 2 Hz, at an intensity corresponding to the temporal summation threshold. During this 10 s stimulation, pain intensity was continuously rated by the subject with an electronic VAS, and the area under the curve (AUC) was computed. Additionally, the maximal VAS during stimulation was recorded.
as §2

[9] = baseline before medication, per drug session
[10] = single oral dose (clobazam 20 mg, clonazepam 1 mg, tolterodine 1 mg), 120 min after medication
[11] = single oral dose (clobazam 20 mg, clonazepam 1 mg, tolterodine 1 mg), after flumazenil 0.2 mg iv
[12] = placebo-controlled, double-blind trial, 114 outpatients with anxiety, mean doses 59 mg clobazam daily, 25 mg diazepam daily, ref Micromedex 2009

## CN1C(=O)CC(=O)N(c2ccccc2)c2cc(Cl)ccc21 [Clobazam]
[1]; main analysis, pairwise multiple comparisons within each drug
  Change in the area of static hyperalgesia over time: no statistically significant increase
[1]; 30 min after medication
  Area of static hyperalgesia: 39.7 (18.6) cm^2
[1]; 60 min after medication
  Area of static hyperalgesia: 44.3 (17.1) cm^2
[1]; 90 min after medication
  Area of static hyperalgesia: 43.0 (15.0) cm^2
[1]; 120 min after medication
  Area of static hyperalgesia: 43.6 (16.5) cm^2
[1]; after flumazenil 0.2 mg iv
  Area of static hyperalgesia: 43.8 (15.0) cm^2
[2]; [9]
  Conditioned pain modulation: 71 (98) kPa
[2]; [10]
  Conditioned pain modulation: 99 (99) kPa
[2]; [11]
  Conditioned pain modulation: 58 (67) kPa
[3]; [9]
  Pain threshold after 5 cutaneous electrical stimuli: 8.3 (3.0) mA
[3]; single oral dose (clobazam 20 mg, clonazepam 1 mg, tolterodine 1 mg), 30 min after medication
  Pain threshold after 5 cutaneous electrical stimuli: 8.7 (3.4) mA
[3]; single oral dose (clobazam 20 mg, clonazepam 1 mg, tolterodine 1 mg), 60 min after medication
  Pain threshold after 5 cutaneous electrical stimuli: 8.7 (3.4) mA
[3]; single oral dose (clobazam 20 mg, clonazepam 1 mg, tolterodine 1 mg), 90 min after medication
  Pain threshold after 5 cutaneous electrical stimuli: 9.3 (2.9) mA
[3]; [10]
  Pain threshold after 5 cutaneous electrical stimuli: 9.9 (3.3) mA
[3]; [11]
  Pain threshold after 5 cutaneous electrical stimuli: 9.7 (3.3) mA
[4]; 20 mg clobazam, unlike 2 mg clonazepam
  Effect on cognitive and psychomotor functions: did not affect significantly
[4]; 20 mg of clobazam
  Sedation compared with 1 mg of clonazepam: less sedative
[4]; [12]
  Dizziness, share of treated patients: 2%
  Sedation, share of treated patients: 38%
[5]; [9]
  Pain threshold after 5 intramuscular electrical stimuli: 1.4 (1.1) mA
[5]; main analysis, pairwise multiple comparison
  Change in pain threshold after 5 intramuscular electrical stimuli between baseline and 120 minutes: statistically significant increase; also recorded: Significant increase in pain thresholds
[5]; peak value analysis, pairwise comparisons within each drug
  Change in pain detection threshold after 5 intramuscular electrical stimuli from baseline to peak value: significant increase; also recorded: Consistent for an increase in pain thresholds after clobazam and clonazepam
[5]; [10]
  Pain threshold after 5 intramuscular electrical stimuli: 2.1 (2.2) mA
[5]; [11]
  Pain threshold after 5 intramuscular electrical stimuli: 2.2 (2.0) mA
[6]; main analysis, pairwise comparison within the time-points
  DSST score compared with tolterodine at 120 min: not
[6]; 120 min after drug administration
  DSST-score: 74.9 (14.7)
[6]; after flumazenil 0.2 mg iv
  DSST-score: 81.1 (12.1)
[7]; after 10 mg in healthy volunteers
  Time to maximum plasma concentration: 1.3 ± 0.2 h
[7]; after 20 mg in healthy volunteers
  Time to maximum plasma concentration: 1.6 h
[7]; general statement
  Time to maximum plasma concentration: about 2 h
[7]; drug background
  Bioavailability: 90%
  Half life (t1/2): circa 20 h
[8]; [9]
  Maximal VAS during 20 intramuscular electrical stimuli: 4.2 (1.5)
  AUC of VAS during 20 intramuscular electrical stimuli: 284 (149)
[8]; [10]
  Maximal VAS during 20 intramuscular electrical stimuli: 4.5 (2.5)
  AUC of VAS during 20 intramuscular electrical stimuli: 309 (188)
[8]; [11]
  Maximal VAS during 20 intramuscular electrical stimuli: 4.0 (1.9)
  AUC of VAS during 20 intramuscular electrical stimuli: 292 (169)
